Laboratory results published in patent US6121326A, “Substituted alkyltetraamine derivatives” (Nippon Zoki Pharmaceutical Co., Ltd., priority 2000, dated 2000).

Tested on: Substance P
Test: Tachykinin antagonistic action: suppression of substance P-induced contraction of isolated guinea pig ileum
Set-up: species or system guinea pig (Hartley strain, male)
Conditions: isotonic contraction, substance P 10^-8 M, 10 minutes treatment with test drug
Method: The compounds of the present invention were tested by an assay using ileum isolated from guinea pigs. Male guinea pigs of the Hartley strain (400 g to 500 g) were fainted and bled out. Then, ileum was isolated and hung in an organ bath filled with a nutritive solution. After an equilibration for 60 minutes, isotonic contraction was recorded. Substance P, a tachykinin agonist, was administered in a dose of 10^-8 M every 15 minutes. Administration of substance P was repeated for 3 to 4 times and it was confirmed that a contraction height for each run became constant. The constant contraction was used as a control. A treatment with the test drug was carried out for 10 minutes and then substance P was administered again and a concentration vs. action curve was prepared. A 50% suppression concentration (lC50) was determined from the concentration vs. action curve of the test drug. The compound of the present invention was used as a test drug and an example of the result of its antagonistic action to substance P is shown in Table 1: […]

Row | SMILES | IC50
1 | CC(=O)Oc1ccc(/C=C/C(=O)NCCCN(CCCCN(CCCNC(=O)/C=C/c2ccc(OC(C)=O)cc2)C(=O)/C=C/c2ccc(OC(C)=O)cc2)C(=O)/C=C/c2ccc(OC(C)=O)cc2)cc1 [Compound 1, N1,N5,N10,N14-Tetrakis[3-(4-acetoxyphenyl)-2-propenoyl]tetraazatetradecane] | 14 nM
2 | O=C(/C=C/c1ccc(O)cc1)NCCCN(CCCCN(CCCNC(=O)/C=C/c1ccc(O)cc1)C(=O)/C=C/c1ccc(O)cc1)C(=O)/C=C/c1ccc(O)cc1 [Compound 2, N1,N5,N10,N14-Tetrakis[3-(4-hydroxyphenyl)-2-propenoyl]tetraazatetradecane] | 11 nM
3 | COc1cc(/C=C/C(=O)NCCCN(CCCCN(CCCNC(=O)/C=C/c2ccc(OC(C)=O)c(OC)c2)C(=O)/C=C/c2ccc(OC(C)=O)c(OC)c2)C(=O)/C=C/c2ccc(OC(C)=O)c(OC)c2)ccc1OC(C)=O [Compound 3, N1,N5,N10,N14-Tetrakis[3-(4-acetoxy-3-methoxyphenyl)-2-propenoyl]tetraazatetradecane] | 710 nM
4 | COc1cc(/C=C/C(=O)NCCCN(CCCCN(CCCNC(=O)/C=C/c2ccc(O)c(OC)c2)C(=O)/C=C/c2ccc(O)c(OC)c2)C(=O)/C=C/c2ccc(O)c(OC)c2)ccc1O [Compound 4, N1,N5,N10,N14-Tetrakis[3-(4-hydroxy-3-methoxyphenyl)-2-propenoyl]tetraazatetradecane] | 580 nM
